From patent publication US20240327381A1, “Compounds and Compositions for Selective Degradation of Engineered Proteins” (Celgene Corporation, priority 2023, published 2024)
Where two headings read alike, the source gives them in different places.

How the values were obtained:
Helios = molecular target: T1, Helios (Homo sapiens, UniProt Q9UKS7); assay: Helios degradation in Jurkat/Helios/HiBit cells (Nano-Glo luminescence); type: cell-based; conditions: 18 hr, read-out: Helios Jurkat Hibit IC50
T1 construct: endogenous in cells; host or cells: Jurkat cells, CRISPR/Cas9 knock-in of HiBit at the IKZF2 locus
In short: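 Jurkat cells carrying CRISPR-knocked-in C-terminal HiBit-tagged endogenous IKZF2 were treated with compound in DMEM/10% FCS (10,000 cells/well) for 18 h at 37 °C. HiBit signal was read by Nano-Glo luminescence after 30 min at RT. EC50 for degradation came from a four-parameter logistic fit, with Ymax as % protein degraded.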

[1] = molecular target: T2, IKZF1 ZNF2_ZNF3 Q1F degron-tagged CD19 CAR (Homo sapiens, UniProt Q13422, Q146F); assay: Degradation of Q1F degron-tagged CD19 CAR in Jurkat cells (flow cytometry of CAR levels); type: cell-based; conditions: for DC50: Jurkat cells expressing CD19 CAR tagged with IKZF1 ZNF2_ZNF3 Q1F, 18 hours at 37° C., CAR levels normalized to untreated cells, read-out: Q1F Jurkat IC50; for Dmax: read-out: Q1F Jurkat-YMax
T2 construct: ZNF2_ZNF3 Q1F degron (GERPFFCNQCGASFTQKGNLLRHIKLHSGEKPFKCHLCNYACRRRDALTGHLRTHS); fused on or other part: anti-CD19 scFv, CD28 transmembrane domain, 4-1BB costimulatory domain, CD3 zeta signaling domain (the CAR that carries the degron), and Nluc
In short: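 Jurkat cells were lentivirally transduced with an anti-CD19 scFv/CD28 TM/4-1BB/CD3ζ CAR tagged with an IKZF1 ZNF2_ZNF3 Q1F degron–Nluc, then treated with compound titrations for 18 h at 37 °C. CAR surface levels were stained (20 min, 4 °C), read by flow cytometry and normalised to untreated cells. EC50 came from a four-parameter logistic fit; Ymin is the minimum % CAR remaining.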

[2] = Ymax is the % protein degraded, Jurkat cells expressing Q1F degron-tagged CD19 CAR, 18 hours

T2 sequence (Q13422 whole entry Q146F, the tested form may be a part): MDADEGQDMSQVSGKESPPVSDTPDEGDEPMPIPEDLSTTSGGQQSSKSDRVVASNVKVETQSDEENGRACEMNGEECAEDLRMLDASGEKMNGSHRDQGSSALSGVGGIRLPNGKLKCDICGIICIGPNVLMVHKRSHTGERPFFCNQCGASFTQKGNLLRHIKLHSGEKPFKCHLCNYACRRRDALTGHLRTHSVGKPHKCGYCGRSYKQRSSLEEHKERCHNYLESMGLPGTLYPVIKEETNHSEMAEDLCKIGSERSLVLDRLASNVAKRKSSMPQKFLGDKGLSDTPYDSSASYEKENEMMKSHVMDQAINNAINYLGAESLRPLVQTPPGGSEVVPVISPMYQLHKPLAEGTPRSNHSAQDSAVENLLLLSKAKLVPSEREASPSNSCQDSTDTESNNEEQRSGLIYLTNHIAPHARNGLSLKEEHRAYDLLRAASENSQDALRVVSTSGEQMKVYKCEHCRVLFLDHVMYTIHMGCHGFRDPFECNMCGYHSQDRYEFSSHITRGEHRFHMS
T1 sequence (Q9UKS7 whole entry): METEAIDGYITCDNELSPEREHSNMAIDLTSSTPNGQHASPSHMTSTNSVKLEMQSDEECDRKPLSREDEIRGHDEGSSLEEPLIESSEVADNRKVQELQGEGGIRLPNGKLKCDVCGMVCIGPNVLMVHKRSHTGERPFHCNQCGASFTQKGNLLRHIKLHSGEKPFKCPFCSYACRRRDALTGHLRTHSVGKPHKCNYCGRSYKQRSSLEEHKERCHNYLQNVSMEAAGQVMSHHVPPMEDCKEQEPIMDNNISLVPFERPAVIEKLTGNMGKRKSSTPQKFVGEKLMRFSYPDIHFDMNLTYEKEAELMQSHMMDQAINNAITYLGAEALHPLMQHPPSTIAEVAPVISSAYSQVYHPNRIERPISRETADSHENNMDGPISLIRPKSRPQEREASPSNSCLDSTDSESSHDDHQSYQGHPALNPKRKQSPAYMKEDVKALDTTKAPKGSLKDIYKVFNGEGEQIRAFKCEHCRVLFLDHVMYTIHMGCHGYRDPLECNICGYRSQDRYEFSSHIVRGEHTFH
T1 sequence (Q96SW2 whole entry, further chain): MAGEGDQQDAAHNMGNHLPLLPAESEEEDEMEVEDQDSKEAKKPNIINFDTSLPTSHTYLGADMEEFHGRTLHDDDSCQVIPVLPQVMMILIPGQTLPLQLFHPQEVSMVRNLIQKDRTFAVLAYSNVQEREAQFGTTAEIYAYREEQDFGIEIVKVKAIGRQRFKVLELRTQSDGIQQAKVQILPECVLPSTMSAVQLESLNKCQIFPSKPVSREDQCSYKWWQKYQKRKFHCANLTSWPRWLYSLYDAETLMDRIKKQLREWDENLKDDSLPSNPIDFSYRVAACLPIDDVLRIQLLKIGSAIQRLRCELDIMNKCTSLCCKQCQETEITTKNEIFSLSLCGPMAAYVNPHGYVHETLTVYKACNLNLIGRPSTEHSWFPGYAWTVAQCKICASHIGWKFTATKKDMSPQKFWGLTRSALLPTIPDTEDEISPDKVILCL
T1 sequence (Q16531 whole entry partner): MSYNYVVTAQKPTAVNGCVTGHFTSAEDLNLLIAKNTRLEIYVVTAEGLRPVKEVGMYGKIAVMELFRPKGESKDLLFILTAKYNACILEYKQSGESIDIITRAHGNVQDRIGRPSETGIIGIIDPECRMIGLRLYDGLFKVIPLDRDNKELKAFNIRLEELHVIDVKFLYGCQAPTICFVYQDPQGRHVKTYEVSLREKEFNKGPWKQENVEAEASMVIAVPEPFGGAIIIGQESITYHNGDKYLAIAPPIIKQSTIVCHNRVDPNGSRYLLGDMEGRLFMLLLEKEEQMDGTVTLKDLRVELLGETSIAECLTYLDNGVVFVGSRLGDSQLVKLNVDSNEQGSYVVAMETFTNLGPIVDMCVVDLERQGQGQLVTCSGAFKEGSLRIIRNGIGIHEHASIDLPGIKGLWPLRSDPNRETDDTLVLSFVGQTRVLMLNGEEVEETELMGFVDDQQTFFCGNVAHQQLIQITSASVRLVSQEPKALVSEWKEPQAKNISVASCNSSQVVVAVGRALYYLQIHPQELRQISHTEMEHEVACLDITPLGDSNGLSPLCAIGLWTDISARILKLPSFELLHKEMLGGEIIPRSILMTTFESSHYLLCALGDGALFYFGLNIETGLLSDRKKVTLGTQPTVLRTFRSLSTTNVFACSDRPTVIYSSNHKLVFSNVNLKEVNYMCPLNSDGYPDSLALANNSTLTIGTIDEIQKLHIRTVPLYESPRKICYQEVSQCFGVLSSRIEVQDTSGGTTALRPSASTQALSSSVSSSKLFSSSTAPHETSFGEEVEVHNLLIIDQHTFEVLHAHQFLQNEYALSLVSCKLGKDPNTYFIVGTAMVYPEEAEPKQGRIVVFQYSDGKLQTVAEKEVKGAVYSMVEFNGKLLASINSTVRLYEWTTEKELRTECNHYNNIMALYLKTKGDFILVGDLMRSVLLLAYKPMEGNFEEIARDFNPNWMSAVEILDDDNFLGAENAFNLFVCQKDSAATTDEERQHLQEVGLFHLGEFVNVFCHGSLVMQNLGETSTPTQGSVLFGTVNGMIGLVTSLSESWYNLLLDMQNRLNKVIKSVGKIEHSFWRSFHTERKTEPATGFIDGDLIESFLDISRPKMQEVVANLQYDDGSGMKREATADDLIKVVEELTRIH

| DC50 (Helios) [nM] | DC50 [1] [nM] | Dmax [1, 2] [%] | SMILES | Dmax ([1]; Jurkat, 18 h) [%] |
| --- | --- | --- | --- | --- |
| ≥ 10000 | 0.563 | 89 | O=C1CCC(N2Cc3c(cc(F)c(C4CCN(CC5CCCCC5)CC4)c3F)C2=O)C(=O)N1 (stereo not drawn) [Compound 67, 3-(5-(1-(cyclohexylmethyl)piperidin-4-yl)-4,6-difluoro-1-oxoisoindolin-2-yl)piperidine-2,6-dione] | – |
| ≥ 10000 | 50.5 | 63.5 | Cc1cc(Br)cnc1CN1CCCC(c2c(F)cc3c(c2F)CN(C2CCC(=O)NC2=O)C3=O)C1 (stereo not drawn) [Compound 68, 3-(5-(1-((5-bromo-3-methylpyridin-2-yl)methyl)piperidin-3-yl)-4,6-difluoro-1-oxoisoindolin-2-yl)piperidine-2,6-dione] | – |
| ≥ 10000 | 23.7 | 95.7 | O=C1CCC(N2Cc3c(cc(F)c(C(=O)N4CCc5c(Cl)cccc5C4)c3F)C2=O)C(=O)N1 (stereo not drawn) [Compound 71, 3-[5-(5-chloro-3,4-dihydro-1H-isoquinoline-2-carbonyl)-4,6-difluoro-1-oxo-isoindolin-2-yl]piperidine-2,6-dione] | – |
| ≥ 10000 | 21.2 | 92.5 | O=C1CCC(N2Cc3c(cc(F)c(C(=O)N4CCc5cc(F)c(F)cc5C4)c3F)C2=O)C(=O)N1 (stereo not drawn) [Compound 72, 3-[5-(6,7-difluoro-3,4-dihydro-1H-isoquinoline-2-carbonyl)-4,6-difluoro-1-oxo-isoindolin-2-yl]piperidine-2,6-dione] | – |
| ≥ 10000 | 108 | 74.9 | O=C1CCC(N2Cc3c(cc(F)c(C(=O)Nc4nccn4C4CCC4)c3F)C2=O)C(=O)N1 (stereo not drawn) [Compound 74, N-(1-cyclobutyl-1H-imidazol-2-yl)-2-(2,6-dioxopiperidin-3-yl)-4,6-difluoro-1-oxoisoindoline-5-carboxamide] | – |
| ≥ 10000 | 24.5 | 61.7 | O=C1CCC(N2Cc3c(cc(F)c(CNC(=O)C4CCC(C(F)(F)F)CC4)c3F)C2=O)C(=O)N1 (stereo not drawn) [Compound 78, N-((2-(2,6-dioxopiperidin-3-yl)-4,6-difluoro-1-oxoisoindolin-5-yl)methyl)-4-(trifluoromethyl)cyclohexane-1-carboxamide] | – |
| ≥ 10000 | 162 | 60 | O=C1CCC(N2Cc3c(cc(F)c(CNCc4ccc(C(F)F)cc4)c3F)C2=O)C(=O)N1 (stereo not drawn) [Compound 79, 3-(5-(((4-(difluoromethyl)benzyl)amino)methyl)-4,6-difluoro-1-oxoisoindolin-2-yl)piperidine-2,6-dione] | – |
| ≥ 10000 | 3.06 | 93 | O=C1CCC(N2Cc3cc(C4CCN(Cc5ccc6ncsc6c5)CC4)c(F)cc3C2=O)C(=O)N1 (stereo not drawn) [Compound 81, 3-(5-(1-(benzo[d]thiazol-6-ylmethyl)piperidin-4-yl)-6-fluoro-1-oxoisoindolin-2-yl) piperidine-2,6-dione] | – |
| ≥ 10000 | 1.72 | 88.2 | O=C1CCC(N2Cc3cc(C4CCN(CC5CCCCC5)CC4)c(F)cc3C2=O)C(=O)N1 (stereo not drawn) [Compound 82, 3-(5-(1-(cyclohexylmethyl)piperidin-4-yl)-6-fluoro-1-oxoisoindolin-2-yl)piperidine-2,6-dione] | – |
| ≥ 10000 | 2.67 | 94.2 | O=C1CCC(N2Cc3cc(C4CCN(Cc5ccc6[nH]ccc6c5)CC4)c(F)cc3C2=O)C(=O)N1 (stereo not drawn) [Compound 89, 3-(5-(1-((1H-indol-5-yl)methyl)piperidin-4-yl)-6-fluoro-1-oxoisoindolin-2-yl)piperidine-2,6-dione] | – |
| ≥ 10000 | 3.9 | 92.1 | O=C1CCC(N2Cc3cc(C4CCN(Cc5cccc6ncsc56)CC4)c(F)cc3C2=O)C(=O)N1 (stereo not drawn) [Compound 91, 3-(5-(1-(benzo[d]thiazol-7-ylmethyl)piperidin-4-yl)-6-fluoro-1-oxoisoindolin-2-yl)piperidine-2,6-dione] | – |
| ≥ 10000 | 9.16 | 63.2 | O=C1CCC(N2Cc3c(cc(F)c(CNC(=O)c4ccc5c(c4)CCC5)c3F)C2=O)C(=O)N1 (stereo not drawn) [Compound 92, N-((2-(2,6-dioxopiperidin-3-yl)-4,6-difluoro-1-oxoisoindolin-5-yl)methyl)-2,3-dihydro-1H-indene-5-carboxamide] | – |
| ≥ 10000 | 655 | 60.9 | O=C1CCC(N2Cc3c(cc(F)c(-c4ccc5c(n4)NCCC5)c3F)C2=O)C(=O)N1 (stereo not drawn) [Compound 94, 3-(4,6-difluoro-1-oxo-5-(5,6,7,8-tetrahydro-1,8-naphthyridin-2-yl)isoindolin-2-yl) piperidine-2,6-dione] | – |

Further lines, the molecule ahead of its results:

| SMILES | DC50 (Helios) [nM] | DC50 [1] [nM] | Dmax [1, 2] [%] | Dmax ([1]; Jurkat, 18 h) [%] |
| --- | --- | --- | --- | --- |
| O=C1CCC(N2Cc3c(cc(F)c(CNC(=O)c4cc5ccccn5c4)c3F)C2=O)C(=O)N1 (stereo not drawn) [Compound 69, N-[[2-(2,6-dioxo-3-piperidyl)-4,6-difluoro-1-oxo-isoindolin-5-yl]methyl]indolizine-2-carboxamide] | ≥ 10000 | 35.2 | 53.9 | – |
| N#Cc1ccc2c(c1)CN(C(=O)c1c(F)cc3c(c1F)CN(C1CCC(=O)NC1=O)C3=O)CC2 (stereo not drawn) [Compound 70, 2-[2-(2,6-dioxo-3-piperidyl)-4,6-difluoro-1-oxo-isoindoline-5-carbonyl]-3,4-dihydro-1H-isoquinoline-7-carbonitrile] | ≥ 10000 | 15 | – | 95.5 |
| CNc1ccc2c(n1)CN(C(=O)c1c(F)cc3c(c1F)CN(C1CCC(=O)NC1=O)C3=O)C2 (stereo not drawn) [Compound 73, 3-[4,6-difluoro-5-[2-(methylamino)-5,7-dihydropyrrolo[3,4-b]pyridine-6-carbonyl]-1-oxo-isoindolin-2-yl]piperidine-2,6-dione] | ≥ 10000 | 3.11 | – | 95.3 |
| O=C1CCC(N2Cc3c(cc(F)c(C(=O)N4Cc5cccnc5C4)c3F)C2=O)C(=O)N1 (stereo not drawn) [Compound 77, 3-(5-(6,7-dihydro-5H-pyrrolo[3,4-b]pyridine-6-carbonyl)-4,6-difluoro-1-oxoisoindolin-2-yl)piperidine-2,6-dione] | ≥ 10000 | 14.8 | 94.8 | – |
| CN(CCN1CCC(c2cc3c(cc2F)C(=O)N(C2CCC(=O)NC2=O)C3)CC1)Cc1ccccc1 (stereo not drawn) [Compound 80, 3-(5-(1-(2-(benzyl(methyl)amino)ethyl)piperidin-4-yl)-6-fluoro-1-oxoisoindolin-2-yl)piperidine-2,6-dione] | ≥ 10000 | 0.533 | 85.1 | – |
| O=C1CCC(N2Cc3cc(C4CCN(Cc5nc6ccccc6s5)CC4)c(F)cc3C2=O)C(=O)N1 (stereo not drawn) [Compound 83, 3-(5-(1-(benzo[d]thiazol-2-ylmethyl)piperidin-4-yl)-6-fluoro-1-oxoisoindolin-2-yl)piperidine-2,6-dione] | ≥ 10000 | 19.9 | 76.8 | – |
| Cc1ccc(CN2CCC(c3cc4c(cc3F)C(=O)N(C3CCC(=O)NC3=O)C4)CC2)cc1 (stereo not drawn) [Compound 84, 3-(6-fluoro-5-(1-(4-methylbenzyl)piperidin-4-yl)-1-oxoisoindolin-2-yl)piperidine-2,6-dione] | ≥ 10000 | 2.1 | 90.3 | – |
| O=C1CCC(N2Cc3cc(C4CCN(Cc5ccc(C(F)(F)F)cc5)CC4)c(F)cc3C2=O)C(=O)N1 (stereo not drawn) [Compound 85, 3-(6-fluoro-1-oxo-5-(1-(4-(trifluoromethyl)benzyl)piperidin-4-yl)isoindolin-2-yl) piperidine-2,6-dione] | ≥ 10000 | 1.53 | – | 89.3 |
| O=C1CCC(N2Cc3cc(C4CCN(Cc5ccc6scnc6c5)CC4)c(F)cc3C2=O)C(=O)N1 (stereo not drawn) [Compound 86, 3-(5-(1-(benzo[d]thiazol-5-ylmethyl)piperidin-4-yl)-6-fluoro-1-oxoisoindolin-2-yl)piperidine-2,6-dione] | ≥ 10000 | 1.94 | 92.1 | – |
| O=C1CCC(N2Cc3cc(C4CCN(Cc5ccc6cn[nH]c6c5)CC4)c(F)cc3C2=O)C(=O)N1 (stereo not drawn) [Compound 87, 3-(5-(1-((1H-indazol-6-yl)methyl)piperidin-4-yl)-6-fluoro-1-oxoisoindolin-2-yl)piperidine-2,6-dione] | ≥ 10000 | 4.06 | 94.2 | – |
| O=C1CCC(N2Cc3cc(C4CCN(Cc5ccc6c(c5)CCC6)CC4)c(F)cc3C2=O)C(=O)N1 (stereo not drawn) [Compound 88, 3-(5-(1-((2,3-dihydro-1H-inden-5-yl)methyl)piperidin-4-yl)-6-fluoro-1-oxoisoindolin-2-yl)piperidine-2,6-dione] | ≥ 10000 | 3.1 | 91.6 | – |
| CS(=O)(=O)c1ccc(CN2CCC(c3cc4c(cc3F)C(=O)N(C3CCC(=O)NC3=O)C4)CC2)cc1 (stereo not drawn) [Compound 90, 3-(6-fluoro-5-(1-(4-(methylsulfonyl)benzyl)piperidin-4-yl)-1-oxoisoindolin-2-yl)piperidine-2,6-dione] | ≥ 10000 | 4.68 | 93.1 | – |
| Cc1cc(-c2c(F)cc3c(c2F)CN(C2CCC(=O)NC2=O)C3=O)nc(N)c1C (stereo not drawn) [Compound 93, 3-(5-(6-amino-4,5-dimethylpyridin-2-yl)-4,6-difluoro-1-oxoisoindolin-2-yl) piperidine-2,6-dione] | ≥ 10000 | 217 | – | 69.1 |
